SMILES strings stand for the structures. Structures can show the parent of a compound that is named as a salt. Bounds are passed on as bounds.

The test concerns the target T1, JAK3 (Homo sapiens, UniProt P52333).
T1 construct: The Ramos B-cell line was acquired from ATCC (ATCC Catalog No. CRL-1596); host or cells: Ramos B-cell line (human)
T1 sequence (P52333 1-1124): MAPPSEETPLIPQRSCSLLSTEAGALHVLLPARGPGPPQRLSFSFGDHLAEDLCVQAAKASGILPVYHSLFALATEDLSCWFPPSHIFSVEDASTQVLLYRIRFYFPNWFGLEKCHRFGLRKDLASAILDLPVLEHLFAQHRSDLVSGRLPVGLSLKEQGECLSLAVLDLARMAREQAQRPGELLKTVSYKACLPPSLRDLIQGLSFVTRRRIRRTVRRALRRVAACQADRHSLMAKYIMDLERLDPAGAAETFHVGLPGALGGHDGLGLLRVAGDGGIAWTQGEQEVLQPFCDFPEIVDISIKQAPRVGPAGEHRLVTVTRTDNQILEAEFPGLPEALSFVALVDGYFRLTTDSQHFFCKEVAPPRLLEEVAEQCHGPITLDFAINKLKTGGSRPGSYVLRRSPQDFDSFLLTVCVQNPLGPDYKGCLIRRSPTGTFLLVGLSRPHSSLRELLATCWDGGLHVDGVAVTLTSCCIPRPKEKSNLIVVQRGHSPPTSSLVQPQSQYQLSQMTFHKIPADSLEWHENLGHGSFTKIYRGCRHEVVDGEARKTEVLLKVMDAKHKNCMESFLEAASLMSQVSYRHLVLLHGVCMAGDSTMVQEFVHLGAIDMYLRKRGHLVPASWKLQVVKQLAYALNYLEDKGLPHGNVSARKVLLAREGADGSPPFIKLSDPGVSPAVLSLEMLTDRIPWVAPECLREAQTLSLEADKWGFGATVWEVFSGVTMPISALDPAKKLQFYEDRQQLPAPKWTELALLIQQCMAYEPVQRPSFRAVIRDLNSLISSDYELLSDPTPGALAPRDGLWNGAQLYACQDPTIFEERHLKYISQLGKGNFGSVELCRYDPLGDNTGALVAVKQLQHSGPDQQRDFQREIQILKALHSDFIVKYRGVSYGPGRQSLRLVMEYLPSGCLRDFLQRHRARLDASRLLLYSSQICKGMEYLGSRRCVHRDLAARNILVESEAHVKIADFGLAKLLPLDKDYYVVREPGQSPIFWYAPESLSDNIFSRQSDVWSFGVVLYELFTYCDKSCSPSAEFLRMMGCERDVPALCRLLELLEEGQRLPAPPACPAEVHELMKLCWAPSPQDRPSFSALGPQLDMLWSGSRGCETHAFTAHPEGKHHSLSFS
The test is described as follows: Assay for CD23 expression on Ramos B-cells stimulated by IL-4 (Table IV: ability to inhibit JAK3 activity). It is filed as cell-based. Conditions: tested under conditions described in Example 3 (so in the source). In outline: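 IL-4-induced CD23 surface expression on human Ramos B cells, detected by flow cytometry after 20–24 h stimulation (IL-4 final 50 units/mL). Compound or DMSO added 1 h beforehand at 37 °C; cells kept in RPMI with 5% serum.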
One may read the IC50 as the concentration that inhibits the measured activity by half. A higher IC50 goes with weaker potency. Compound `COc1cc(Nc2ncc(F)c(Nc3cc(C)c4oc(=O)[nH]c4c3)n2)cc(C)c1OC` [Compound I-183, 5-(2-(3,4-dimethoxy-5-methylphenylamino)-5-fluoropyrimidin-4-ylamino)-7-methylbenzo[d]oxazol-2(3H)-one trifluoroacetate salt] had an IC50 of less than 500 nM.

`COc1cc(Nc2ncc(F)c(Nc3cc(F)c4oc(=O)[nH]c4c3)n2)cc(C)c1OC` [Compound I-184, 5-(2-(3,4-dimethoxy-5-methylphenylamino)-5-fluoropyrimidin-4-ylamino)-7-fluorobenzo[d]oxazol-2(3H)-one trifluoroacetate salt] gave an IC50 of less than 500 nM. `COc1cc(Nc2ncc(F)c(Nc3ccc4oc(=O)[nH]c4c3)n2)cc(Cl)c1OC` [Compound I-185, 5-(2-(3-chloro-4,5-dimethoxyphenylamino)-5-fluoropyrimidin-4-ylamino)benzo[d]oxazol-2(3H)-one trifluoroacetate salt] had an IC50 of less than 500 nM. Compound `Cc1cc(C)cc(Nc2ncc(F)c(Nc3cc(F)c4oc(=O)[nH]c4c3)n2)c1` [Compound I-187, 5-(2-(3,5-dimethylphenylamino)-5-fluoropyrimidin-4-ylamino)-7-fluorobenzo[d]oxazol-2(3H)-one trifluoroacetate salt] had an IC50 of less than 500 nM. Then `Cc1cc(Nc2ncc(F)c(Nc3cc(F)c4oc(=O)[nH]c4c3)n2)cc(C)c1C` [Compound I-188, 5-(2-(3,4,5-trimethylphenylamino)-5-fluoropyrimidin-4-ylamino)-7-fluorobenzo[d]oxazol-2(3H)-one trifluoroacetate salt], with less than 500 nM; and `Cc1cc(Nc2ncc(F)c(Nc3cc(F)c4oc(=O)[nH]c4c3)n2)cc(C)c1F` [Compound I-189, 5-(2-(4-fluoro-3,5-dimethylphenylamino)-5-fluoropyrimidin-4-ylamino)-7-fluorobenzo[d]oxazol-2(3H)-one trifluoroacetate salt], with less than 500 nM; and `COc1cc(Nc2ncc(F)c(Nc3cc(C)c4oc(=O)[nH]c4c3)n2)cc(C)c1F` [Compound I-190, 5-(2-(4-fluoro-3-methoxy-5-methylphenylamino)-5-fluoropyrimidin-4-ylamino)-7-methylbenzo[d]oxazol-2(3H)-one trifluoroacetate salt], with 500 to 5000 nM. For `COc1cc(Nc2ncc(F)c(Nc3cc(F)c4oc(=O)[nH]c4c3)n2)cc(C)c1F` [Compound I-191, 5-(2-(4-fluoro-3-methoxy-5-methylphenylamino)-5-fluoropyrimidin-4-ylamino)-7-fluorobenzo[d]oxazol-2(3H)-one trifluoroacetate salt], the IC50 is less than 500 nM.

On to `COc1c(F)ccc(Nc2ncc(F)c(Nc3cc(C)c4oc(=O)[nH]c4c3)n2)c1F` [Compound I-192, 5-(2-(2,4-difluoro-3-methoxyphenylamino)-5-fluoropyrimidin-4-ylamino)-7-methylbenzo[d]oxazol-2(3H)-one trifluoroacetate salt], for which the IC50 is 500 to 5000 nM. As for `COc1c(F)ccc(Nc2ncc(F)c(Nc3cc(F)c4oc(=O)[nH]c4c3)n2)c1F` [Compound I-193, 5-(2-(2,4-difluoro-3-methoxyphenylamino)-5-fluoropyrimidin-4-ylamino)-7-fluorobenzo[d]oxazol-2(3H)-one trifluoroacetate salt], the figure is 500 to 5000 nM. As for `COc1cc(Nc2ncc(F)c(Nc3ccc4oc(=O)[nH]c4c3)n2)cc(OC)c1C` [Compound I-194, 5-(2-(3,5-dimethoxy-4-methylphenylamino)-5-fluoropyrimidin-4-ylamino)benzo[d]oxazol-2(3H)-one trifluoroacetate salt], the figure is 500 to 5000 nM; as for `COc1cc(Nc2ncc(F)c(Nc3ccc4oc(=O)[nH]c4c3)n2)cc(C)c1C` [Compound I-195, 5-(2-(3-methoxy-4,5-dimethylphenylamino)-5-fluoropyrimidin-4-ylamino)benzo[d]oxazol-2(3H)-one trifluoroacetate salt], less than 500 nM.

For `COc1ccc(Nc2ncc(F)c(Nc3ccc4oc(=O)[nH]c4c3)n2)cc1` [Compound I-196, 5-(2-(4-methoxyphenylamino)-5-fluoropyrimidin-4-ylamino)benzo[d]oxazol-2(3H)-one formate salt], the IC50 is less than 500 nM. `COc1ccc(Nc2ncc(F)c(Nc3ccc4oc(=O)[nH]c4c3)n2)cc1C(F)F` [Compound I-197, 5-(2-(3-(difluoromethyl)-4-methoxyphenylamino)-5-fluoropyrimidin-4-ylamino)benzo[d]oxazol-2(3H)-one formate salt] displayed an IC50 of less than 500 nM. In the case of `CC(C)c1ccc(Nc2ncc(F)c(Nc3ccc4oc(=O)[nH]c4c3)n2)cc1` [Compound I-200, 5-(2-(4-isopropylphenylamino)-5-fluoropyrimidin-4-ylamino)benzo[d]oxazol-2(3H)-one trifluoroacetate salt], the IC50 lay within 500 to 5000 nM.

As to `CC(C)(C)c1ccc(Nc2ncc(F)c(Nc3ccc4oc(=O)[nH]c4c3)n2)cc1` [Compound I-201, 5-(2-(4-tert-butylphenylamino)-5-fluoropyrimidin-4-ylamino)benzo[d]oxazol-2(3H)-one trifluoroacetate salt], the IC50 was in the range of 500 to 5000 nM. As for `Cc1ccc(Nc2ncc(F)c(Nc3ccc4oc(=O)[nH]c4c3)n2)cc1` [Compound I-202, 5-(2-(p-tolylamino)-5-fluoropyrimidin-4-ylamino)benzo[d]oxazol-2(3H)-one trifluoroacetate salt], the figure is 500 to 5000 nM.

With `Cc1ccc(Nc2ncc(F)c(Nc3ccc4oc(=O)[nH]c4c3)n2)cc1-c1ccncc1` [Compound I-203, 5-(2-(4-methyl-3-(pyridin-4-yl)phenylamino)-5-fluoropyrimidin-4-ylamino)benzo[d]oxazol-2(3H)-one], the IC50 was less than 500 nM. Turning to `Cc1ccc(Nc2ncc(F)c(Nc3ccc4oc(=O)[nH]c4c3)n2)cc1-c1cccnc1` [Compound I-204, 5-(2-(4-methyl-3-(pyridin-3-yl)phenylamino)-5-fluoropyrimidin-4-ylamino)benzo[d]oxazol-2(3H)-one], the IC50 was less than 500 nM. With `O=c1[nH]c2cc(Nc3nc(Nc4ccc(F)c(-c5ccncc5)c4)ncc3F)ccc2o1` [Compound I-205, 5-(2-(4-fluoro-3-(pyridin-4-yl)phenylamino)-5-fluoropyrimidin-4-ylamino)benzo[d]oxazol-2(3H)-one], the IC50 was less than 500 nM.

Compound `O=c1[nH]c2cc(Nc3nc(Nc4ccc(F)c(-c5cccnc5)c4)ncc3F)ccc2o1` [Compound I-206, 5-(2-(4-fluoro-3-(pyridin-3-yl)phenylamino)-5-fluoropyrimidin-4-ylamino)benzo[d]oxazol-2(3H)-one] had an IC50 of less than 500 nM. As for `COc1cc(Nc2ncc(F)c(Nc3ccc4oc(=O)[nH]c4c3)n2)ccc1-c1ccncc1` [Compound I-207, 5-(2-(3-methoxy-4-(pyridin-4-yl)phenylamino)-5-fluoropyrimidin-4-ylamino)benzo[d]oxazol-2(3H)-one formate salt], the IC50 was greater than 10000 nM.

Compound `COc1ccc(Nc2ncc(F)c(Nc3ccc4oc(=O)[nH]c4c3)n2)cc1-c1ccncc1` [Compound I-208, 5-(2-(4-methoxy-3-(pyridin-4-yl)phenylamino)-5-fluoropyrimidin-4-ylamino)benzo[d]oxazol-2(3H)-one formate salt] came in with an IC50 of less than 500 nM. As to `COc1ccc(Nc2ncc(F)c(Nc3ccc4oc(=O)[nH]c4c3)n2)cc1-c1cccnc1` [Compound I-209, 5-(2-(4-methoxy-3-(pyridin-3-yl)phenylamino)-5-fluoropyrimidin-4-ylamino)benzo[d]oxazol-2(3H)-one formate salt], the IC50 is less than 500 nM. `O=c1[nH]c2cc(Nc3nc(Nc4cccc(C(O)C(F)(F)F)c4)ncc3F)ccc2o1` (centres unmarked) [Compound I-210, 5-fluoro-N2-[3-(1-hydroxy-2,2,2-trifluoroethyl)]phenyl-N4-(2-oxo-2,3-dihydro-1,3-benzoxazol-5-yl)-2,4-pyrimidinediamine] showed an IC50 of less than 500 nM. `COc1cc(Nc2ncc(F)c(Nc3ccc4oc(=O)[nH]c4c3)n2)cc(C(F)(F)F)c1` [Compound I-211, 5-fluoro-N2-(3-methoxy-5-trifluoromethyl)phenyl-N4-(2-oxo-2,3-dihydro-1,3-benzoxazol-5-yl)-2,4-pyrimidinediamine]: the IC50 was less than 500 nM.

The values above are taken from patent US11174251B2, “Compositions and methods for inhibition of the JAK pathway” (Rigel Pharmaceuticals, Inc., priority 2010, dated 2021).
